According to patent publication US7811688B2 (Enersol, Inc. N.A., LP, priority 2002, dated 2010):
Structures can show the parent of a compound that is named as a salt. Where two headings read alike, the source gives them in different places.

Legend:
human nose [1] = conditions: cited from earlier work; for Olfactory Power (pOl): in air, pOl=−log [odorant] as volumetric fraction; for Olfactory Power (p. ol): Table 4
[2] = Odorant vapor pressure and odorant-hydrogen phase equilibrium (Raoult's Law)
Experimental: To quantitatively validate the concentration of an odorant in the gas phase at high pressure, first order phase equilibrium equations may be used.
It is also assumed that the odorant is saturated. This means that at the constant pressure when odorant is added, the amount of odorant in the vapor phase remains constant. The equation used to find the fraction of the vapor phase taken solely by the odorant is Raoult's Law: xAPA^sat=yAP
Where, xA is the odorant's fraction of the liquid phase, yA is the odorant's fraction of the vapor phase, PA^sat is the vapor pressure of the saturated odorant, and P is the total pressure within the system.
With these values, the concentration of odorant may be found at ambient conditions for the storage conditions of 6,000 psi. To calculate the pressure needed to produce a certain saturated concentration of odorant in the vapor phase: […]

human nose [3] = experiment: Standard human olfactory power / odor threshold; format: in vivo; conditions: for Odorant Threshold: minimum detection concentration
Source text: Another important property of an odorant is its odor threshold. A suitable odorant should be detectable by the human nose at very low concentrations. […] To ensure simultaneous outflow in case of a leak, both components should be in the same phase and well blended. Some odor threshold values may be found in the Handbook of Hazardous Chemical Properties. In addition, the American Industrial Hygiene Association (AIHA) publishes a book of odor threshold values (Odor Thresholds for Chemicals with Established Occupational Health Standards).
Certain functional groups, such as the mercaptans, have high potency odors. According to published standardized human olfactory thresholds, mercaptans are among the strongest smelling compounds known. The stench of mercaptans is a key reason why these compounds were chosen for natural gas odorization. The following is a list of functional groups that may be used to highlight key factors for olfactory thresholds in humans. Standard olfactory power refers to the minimum concentration at which a particular compound is detectable by the average person. The mathematical definition is given as the negative log of odorant concentration expressed in volumetric fraction: pOl=−log [odorant]. Based on this definition an olfactory power of “0/6/9” corresponds to “odorlessness/1 ppm/1 ppb” threshold levels, respectively.

[4] = @ 25° C.; cited from earlier work
average weight person = conditions: cited from earlier work

SMILES: COC=O [methyl formate]
- Olfactory Power (pOl) (human nose [1]): 4.03

SMILES: CSC [dimethylsulfide]
- Olfactory Power (pOl) (human nose [1]): 8.65

SMILES: CN [methylamine, methyl amine]
- ‘B’ Saturated Odorant Loading [6000 psi H2] ([2]; PA^sat/P × 10^6 at 6000 psi): 8543 ppm
- Olfactory Power (pOl) (human nose [1]): 7.73
- Odorant Threshold (human nose [3]; Table 4): 0.01862 ppm

SMILES: CCS [ethyl mercaptan]
- Saturated Odorant Concentration yA ([2]; @ 6000 psi, 25° C.): 1705 ppm
- ‘B’ Saturated Odorant Loading [6000 psi H2] ([2]; PA^sat/P × 10^6 at 6000 psi): 1705 ppm
- Olfactory Power (p. ol) (human nose [1]): 8.97
- Olfactory Power (pOl) (human nose [1]): 8.97
- times higher detectability as compared to ethanol (human nose [3]; FIG. 3): 30,000 times
- Odorant Threshold (human nose [3]; Table 3): 0.00107 ppm
- Odorant Threshold (human nose [3]; Table 4): 0.001072 ppm
- Odorant Vapor Pressure PA^SAT [4]: 10.2 psi

SMILES: CN(C)C [trimethyl amine]
- Saturated Odorant Concentration yA ([2]; @ 6000 psi, 25° C.): 5172 ppm
- Odorant Vapor Pressure PA^SAT [4]: 31.0 psi

SMILES: COC(C)=O [methyl acetate]
- Olfactory Power (pOl) (human nose [1]): 5.21

SMILES: CC[SeH] [ethyl selenol]
- Odorant Vapor Pressure PA^SAT ([2]; @ 25° C., estimated value based on known vapor pressures of structurally similar compounds): ~5 psi
- Saturated Odorant Concentration yA ([2]; @ 6000 psi, 25° C.): ~833 ppm
- ‘B’ Saturated Odorant Loading [6000 psi H2] ([2]; PA^sat/P × 10^6 at 6000 psi): 833 ppm
- Olfactory Power (pOl) (human nose [1]): 10.74
- times higher detectability as compared to ethyl mercaptan (human nose [3]; FIG. 3): 67 times
- Odorant Threshold (human nose [3]; Table 4): 0.000018 ppm
- detectability (human nose [3]; based on its olfactory power): 1.8E-5 ppm

SMILES: [Se] [selenium]
- ingested quantity at which selenosis occurs (average weight person): 5 mg/day

SMILES: c1ccncc1 [pyridine]
- Saturated Odorant Concentration yA [2]: 67 ppm
- maximum concentration in the vapor/gas phase [2]: 67 ppm
- ‘B’ Saturated Odorant Loading [6000 psi H2] [2]: 67 ppm
- Olfactory Power (p. ol) (human nose [1]): 7.07
- Odorant Threshold (human nose [3]; Table 4): 0.08511 ppm
- Odorant Vapor Pressure PA^SAT [4]: 0.4 psi

SMILES: CCCl [ethylchloride]
- ‘B’ Saturated Odorant Loading [6000 psi H2] ([2]; PA^sat/P × 10^6 at 6000 psi): 3256 ppm
- Olfactory Power (pOl) (human nose [1]): 5.39
- Odorant Threshold (human nose [3]; Table 4): 4.074 ppm

SMILES: CCN [ethylamine, ethyl amine]
- Olfactory Power (pOl) (human nose [1]): 6.49

SMILES: CCSC [methylethylsulfide]
- Olfactory Power (pOl) (human nose [1]): 8.42

SMILES: CNC [dimethylamine, dimethyl amine]
- Saturated Odorant Concentration yA [2]: 4892 ppm
- ‘B’ Saturated Odorant Loading [6000 psi H2] [2]: 4892 ppm
- Olfactory Power (pOl) (human nose [1]): 7.09
- Odorant Threshold (human nose [3]; Table 4): 0.08128 ppm
- Odorant Vapor Pressure PA^SAT [4]: 29.4 psi

SMILES: CS [methyl mercaptan]
- Olfactory Power (pOl) (human nose [1]): 8.98

SMILES: CCNCC [diethylamine]
- Olfactory Power (pOl) (human nose [1]): 6.73

SMILES: CC(C)=O [acetone]
- Olfactory Power (pOl) (human nose [1]): 4.84

SMILES: C[Se]C [dimethyl selenide]
- Saturated Odorant Concentration yA ([2]; @ 6000 psi, 25° C.): 773 ppm
- Odorant Vapor Pressure PA^SAT [4]: 4.6 psi

SMILES: CCSCC [diethylsulfide]
- Olfactory Power (pOl) (human nose [1]): 8.41

SMILES: CO [methanol]
- Olfactory Power (pOl) (human nose [1]): 3.85

SMILES: CC(C)CS [isobutyl mercaptan]
- Olfactory Power (pOl) (human nose [1]): 8.95

SMILES: CCCO [Odorant 1-propanol, 1-propanol]
- Olfactory Power (pOl) (human nose [1]): 5.62

SMILES: CCC [propane]
- Olfactory Power (pOl) (human nose [1]): 2.57

SMILES: CC(C)(C)S [t-butyl mercaptan]
- Saturated Odorant Concentration yA ([2]; @ 6000 psi, 25° C.): 583 ppm
- maximum concentration in the vapor/gas phase ([2]; at 6000 psi): approximately 580 ppm
- Olfactory Power (pOl) (human nose [1]): 9.48

SMILES: CC [ethane]
- Olfactory Power (pOl) (human nose [1]): 2.00

SMILES: CC[Se]CC [diethylselenide, diethyl selenide]
- Olfactory Power (pOl) (human nose [1]): 9.13

SMILES: CCO [ethanol]
- ‘B’ Saturated Odorant Loading [6000 psi H2] ([2]; PA^sat/P × 10^6 at 6000 psi): 190 ppm
- concentration in the vapor phase ([2]; at 6000 psi): ≤ 190 ppm
- Olfactory Power (pOl) (human nose [1]): 4.54
- Odorant Threshold (human nose [3]; Table 4): 28.840 ppm

SMILES: CCCC [butane]
- Olfactory Power (pOl) (human nose [1]): 3.69

SMILES: CCCN [propylamine, propyl amine]
- Saturated Odorant Concentration yA ([2]; @ 6000 psi, 25° C.): 999 ppm
- ‘B’ Saturated Odorant Loading [6000 psi H2] ([2]; PA^sat/P × 10^6 at 6000 psi): 999 ppm
- Olfactory Power (pOl) (human nose [1]): 7.96
- Odorant Threshold (human nose [3]; Table 4): 0.01097 ppm
- Odorant Vapor Pressure PA^SAT [4]: 6.0 psi

SMILES: CC=O [acetaldehyde]
- Olfactory Power (pOl) (human nose [1]): 6.73
